Assay in all cases: inhibition of tumour cell growth, NCI panel, 48 h
In assay [1] the test system is CCRF-CEM.
Assay [2] concerns U-251.
Assay [3] deals with SK-MEL-28.
Assay [4] relates to RXF 393.
The test system of assay [5] is HCT-15.
The test system of assay [6] is SK-MEL-2.
Assay [7] has as its system MOLT-4.
The subject of assay [8] is MDA-N.
Assay [9] relates to NCI-H23.
Assay [10] relates to OVCAR-4.
The test system of assay [11] is IGROV-1.
Assay [12] has as its system SK-MEL-5.
Assay [13] has as its system LOX IMVI.
Assay [14] has as its system ACHN.
The subject of assay [15] is NCI/ADR-RES.
Assay [16] relates to T47D.
Assay [17] has as its system K562.
For assay [18], the system named is CAKI-1.
The subject of assay [19] is NCI-H522.
Assay [20] has as its system MDA-MB-435.

Structures are written as SMILES.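 Five concentrations, 48 hours, 96-well plates. GI50 = concentration required for 50% inhibition of growth.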 The source made the active and inactive calls. Rule as the data show it: active = GI50 up to about 1.1 µM and inactive = higher.

For `O=c1cc(NNc2ccc(F)cc2)[nH]c(=O)[nH]1`, the GI50 in [1] was 12.9 µM (inactive); in [2], 25.6 µM (inactive); in assay [3] it was 18.3 µM (inactive); in [4] it was 15.5 µM (inactive); in assay [5], 16.1 µM; in [6] it was 21.4 µM (inactive). In addition, the GI50 in [7] is 19.8 µM (inactive); in assay [8] it was 16.4 µM (inactive); in assay [9], 29.4 µM (inactive); in [10], 9.68 µM (inactive); in [11], 16.6 µM (inactive); in assay [12], 25.7 µM (inactive). Besides, the GI50 in assay [13] was > 100 µM (inactive); in assay [14], 17.9 µM (inactive); in assay [15] it was 28.2 µM (inactive); in assay [16], 27 µM (inactive); in assay [17], 17.8 µM (inactive).

`CC#CS(=O)(=O)c1ccccc1`: the GI50 was 1.04 µM (active) in assay [18]; 1.62 µM (inactive) in assay [19]; 12.9 µM (inactive) in assay [2]; 3.13 µM (inactive) in [3]; 14.2 µM (inactive) in [4]; 2.88 µM in assay [5]. The GI50 in assay [6] was 14.2 µM (inactive); in [7], 0.253 µM (active); in assay [9], 5.2 µM (inactive); in [10] it was 3.19 µM (inactive); in assay [11] it was 11.9 µM (inactive); in assay [12], 2.81 µM (inactive). For the same compound, the GI50 in assay [20] was 10.9 µM (inactive); in assay [13], 5.45 µM (inactive); in [14], 3.57 µM (inactive); in assay [15], 10.4 µM (inactive); in assay [16], 2.33 µM (inactive).

As for `CN1C2CCC1CC(=CCOC(c1ccc(F)cc1)c1ccc(F)cc1)C2`, the GI50 was 16.4 µM (inactive) in [18]; 11.6 µM (inactive) in assay [19]; 37 µM (inactive) in assay [1]; 17.2 µM (inactive) in [2]; 18.9 µM (inactive) in assay [3]; 14.5 µM (inactive) in assay [4]. Further, the GI50 was 15.7 µM in assay [5]; 19.1 µM (inactive) in [6]; 15 µM (inactive) in [7]; 17.7 µM (inactive) in assay [9]; 16.2 µM (inactive) in assay [10]; 15.7 µM (inactive) in assay [11]. For the same compound, the GI50 was 10.3 µM (inactive) in assay [12]; 12.8 µM (inactive) in [20]; 16.8 µM (inactive) in [13]; 17.4 µM (inactive) in assay [14]; 23.3 µM (inactive) in assay [15]; 17.6 µM (inactive) in assay [16]. For the same compound, the GI50 in [17] was 5.94 µM (inactive).

For the compound `CCOC(=O)/C(C#N)=C/c1ccc(SCc2ccco2)c([N+](=O)[O-])c1`, the GI50 in [18], in assay [19], in assay [1], in assay [2], in assay [3] and in [4] was > 100 µM (inactive) each time. Also, the GI50 in assay [6], in assay [7], in [8], in [9], in assay [10] and in assay [11] was > 100 µM (inactive) throughout. In addition, the GI50 in assay [12], in assay [20], in [13], in [14], in assay [15] and in [17] was > 100 µM (inactive) each time.

Turning to `CN1CCC2(CC1)SSC1(CCN(C)CC1)S2`, the GI50 in assay [1] was > 100 µM (inactive); in [2], > 100 µM (inactive); in [3] it was > 100 µM (inactive); in assay [5], above 100 µM; in assay [6], > 100 µM (inactive); in [7] it was > 100 µM (inactive). In addition, the GI50 in [8] is > 100 µM (inactive); in assay [9] it was > 100 µM (inactive); in assay [10], > 100 µM (inactive); in assay [12], 60.5 µM (inactive); in assay [20] it was > 100 µM (inactive); in assay [13], 2.35 µM (inactive). In addition, the GI50 in assay [14], in assay [15] and in assay [17] was > 100 µM (inactive) each time.

As for `CCOC(=O)CSc1[nH]c(NC(=S)Nc2ccccc2)c(C(N)=O)c1C(N)=O`, the GI50 in [18] was > 10 µM (inactive); in [1], 4.95 µM (inactive); in [3] it was > 10 µM (inactive); in assay [4], > 10 µM (inactive); in assay [5] it was above 10 µM; in assay [7], 6.21 µM (inactive). Moreover, the GI50 in [8], in [9], in [10], in assay [11], in assay [12] and in [20] was > 10 µM (inactive) throughout. Besides, the GI50 in assay [13], in assay [16] and in assay [17] was > 10 µM (inactive) throughout.

On to `O=C(Nc1ccccn1)/C(=C\C(=O)c1ccc(Cl)cc1)Nc1ccccc1`, for which the GI50 is > 10 µM (inactive) in assay [18]; > 10 µM (inactive) in [1]; > 10 µM (inactive) in assay [3]; > 10 µM (inactive) in [4]; above 10 µM in assay [5]; > 10 µM (inactive) in [7]. Further, the GI50 in [8], in assay [9], in assay [10], in [11], in assay [12] and in assay [20] was > 10 µM (inactive) in each case. The GI50 in [13], in [16] and in assay [17] was > 10 µM (inactive) each time.

As for `CCOC(=O)NC(C(=O)OCC)C(F)(F)F` (stereo not given), the GI50 in assay [18] is > 100 µM (inactive); in assay [1], 40.6 µM (inactive); in assay [2] it was > 100 µM (inactive); in assay [3], > 100 µM (inactive); in [5] it was above 100 µM; in assay [6], > 100 µM (inactive). Further, the GI50 in assay [7] is 93.8 µM (inactive); in assay [8], > 100 µM (inactive); in assay [9], > 100 µM (inactive); in [11], > 100 µM (inactive); in [12], > 100 µM (inactive); in assay [13], 76.6 µM (inactive). In addition, the GI50 in assay [14], in assay [15] and in assay [17] was > 100 µM (inactive) in each case.

In the case of `COC1OC(C)/C(=N/O)C2OC(C)(C)OC12` (stereo not given), the GI50 in assay [18], in assay [19], in assay [1], in assay [2], in [3] and in assay [4] was > 100 µM (inactive) in each case. Moreover, the GI50 is above 100 µM in assay [5]; > 100 µM (inactive) in [7]; > 100 µM (inactive) in assay [9]; > 100 µM (inactive) in assay [10]; > 100 µM (inactive) in [11]; > 100 µM (inactive) in assay [12]. The GI50 in [20], in [13], in [14], in assay [15], in assay [16] and in assay [17] was > 100 µM (inactive) each time.

Regarding `Cc1ccc(OCC2OC(n3cnc4c(Cl)nc(Cl)nc43)CC2Oc2ccc(C)cc2)cc1` (stereo not given), the GI50 in [18] is 1.57 µM (inactive); in [19] it was 1.74 µM (inactive); in assay [1], 4.3 µM (inactive); in assay [2], 2.13 µM (inactive); in [3], 2.7 µM (inactive); in assay [5], 1.82 µM. In addition, the GI50 in [6] was 2.24 µM (inactive); in assay [7], 1.94 µM (inactive); in assay [8] it was 1.93 µM (inactive); in assay [9], 1.85 µM (inactive); in assay [10], 2.15 µM (inactive); in [11], 2.04 µM (inactive). For the same compound, the GI50 is 7.1 µM (inactive) in assay [12]; 2.26 µM (inactive) in [20]; 1.79 µM (inactive) in [13]; 1.37 µM (inactive) in assay [14]; 1.97 µM (inactive) in assay [15]; 2.14 µM (inactive) in assay [16].

Turning to `COI1NC(=O)c2ccccc21`, the GI50 was 74 µM (inactive) in assay [19]; 60.4 µM (inactive) in assay [1]; > 100 µM (inactive) in [2]; > 100 µM (inactive) in assay [3]; above 100 µM in assay [5]; > 100 µM (inactive) in [6]. Moreover, the GI50 in assay [7], in assay [8], in assay [9], in assay [10], in assay [11] and in [12] was > 100 µM (inactive) throughout. In addition, the GI50 in assay [20], in assay [13], in [14], in assay [15] and in [17] was > 100 µM (inactive) each time.

On to `Nc1nc(N)c(-c2ccccc2)c(C(=O)Nc2ccccc2)n1`, for which the GI50 in assay [18], in assay [19], in [1], in [2], in assay [3] and in [4] was > 100 µM (inactive) each time. The GI50 in [5] is above 100 µM; in [6], > 100 µM (inactive); in assay [7], > 100 µM (inactive); in assay [9] it was > 100 µM (inactive); in assay [10] it was > 100 µM (inactive); in [11], > 100 µM (inactive). The GI50 in [12], in assay [13], in assay [14] and in assay [17] was > 100 µM (inactive) in each case.

Values taken from ChEMBL document CHEMBL1201862, “PubChem BioAssay data set” (2004).
